Results published in patent US8895733B2 (Novartis AG, priority 2010, dated 2014).
Counter-ions that a name gives are not always drawn.

What follows are compounds tested against T1, Nav 1.7 (Homo sapiens, UniProt Q15858) (assay: Whole-cell voltage clamp electrophysiology, automated patch clamp (marker c in Table of Examples)). Conditions: marker c = Automated patch clamp data; read-out: Nav 1.7 activity.
T1 construct: expressed in transfected cells
Type: cell-based
Summary of the method: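 Human NaV1.7 currents were recorded by whole-cell automated patch clamp, on IonWorks Quattro or another automated platform, typically in perforated-patch configuration. The stimulus protocol was designed to probe block mainly of the inactivated state, with a typical sweep stepping from about −65 mV holding to −10 mV, then −100 mV.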

T1 sequence (Q15858 whole entry): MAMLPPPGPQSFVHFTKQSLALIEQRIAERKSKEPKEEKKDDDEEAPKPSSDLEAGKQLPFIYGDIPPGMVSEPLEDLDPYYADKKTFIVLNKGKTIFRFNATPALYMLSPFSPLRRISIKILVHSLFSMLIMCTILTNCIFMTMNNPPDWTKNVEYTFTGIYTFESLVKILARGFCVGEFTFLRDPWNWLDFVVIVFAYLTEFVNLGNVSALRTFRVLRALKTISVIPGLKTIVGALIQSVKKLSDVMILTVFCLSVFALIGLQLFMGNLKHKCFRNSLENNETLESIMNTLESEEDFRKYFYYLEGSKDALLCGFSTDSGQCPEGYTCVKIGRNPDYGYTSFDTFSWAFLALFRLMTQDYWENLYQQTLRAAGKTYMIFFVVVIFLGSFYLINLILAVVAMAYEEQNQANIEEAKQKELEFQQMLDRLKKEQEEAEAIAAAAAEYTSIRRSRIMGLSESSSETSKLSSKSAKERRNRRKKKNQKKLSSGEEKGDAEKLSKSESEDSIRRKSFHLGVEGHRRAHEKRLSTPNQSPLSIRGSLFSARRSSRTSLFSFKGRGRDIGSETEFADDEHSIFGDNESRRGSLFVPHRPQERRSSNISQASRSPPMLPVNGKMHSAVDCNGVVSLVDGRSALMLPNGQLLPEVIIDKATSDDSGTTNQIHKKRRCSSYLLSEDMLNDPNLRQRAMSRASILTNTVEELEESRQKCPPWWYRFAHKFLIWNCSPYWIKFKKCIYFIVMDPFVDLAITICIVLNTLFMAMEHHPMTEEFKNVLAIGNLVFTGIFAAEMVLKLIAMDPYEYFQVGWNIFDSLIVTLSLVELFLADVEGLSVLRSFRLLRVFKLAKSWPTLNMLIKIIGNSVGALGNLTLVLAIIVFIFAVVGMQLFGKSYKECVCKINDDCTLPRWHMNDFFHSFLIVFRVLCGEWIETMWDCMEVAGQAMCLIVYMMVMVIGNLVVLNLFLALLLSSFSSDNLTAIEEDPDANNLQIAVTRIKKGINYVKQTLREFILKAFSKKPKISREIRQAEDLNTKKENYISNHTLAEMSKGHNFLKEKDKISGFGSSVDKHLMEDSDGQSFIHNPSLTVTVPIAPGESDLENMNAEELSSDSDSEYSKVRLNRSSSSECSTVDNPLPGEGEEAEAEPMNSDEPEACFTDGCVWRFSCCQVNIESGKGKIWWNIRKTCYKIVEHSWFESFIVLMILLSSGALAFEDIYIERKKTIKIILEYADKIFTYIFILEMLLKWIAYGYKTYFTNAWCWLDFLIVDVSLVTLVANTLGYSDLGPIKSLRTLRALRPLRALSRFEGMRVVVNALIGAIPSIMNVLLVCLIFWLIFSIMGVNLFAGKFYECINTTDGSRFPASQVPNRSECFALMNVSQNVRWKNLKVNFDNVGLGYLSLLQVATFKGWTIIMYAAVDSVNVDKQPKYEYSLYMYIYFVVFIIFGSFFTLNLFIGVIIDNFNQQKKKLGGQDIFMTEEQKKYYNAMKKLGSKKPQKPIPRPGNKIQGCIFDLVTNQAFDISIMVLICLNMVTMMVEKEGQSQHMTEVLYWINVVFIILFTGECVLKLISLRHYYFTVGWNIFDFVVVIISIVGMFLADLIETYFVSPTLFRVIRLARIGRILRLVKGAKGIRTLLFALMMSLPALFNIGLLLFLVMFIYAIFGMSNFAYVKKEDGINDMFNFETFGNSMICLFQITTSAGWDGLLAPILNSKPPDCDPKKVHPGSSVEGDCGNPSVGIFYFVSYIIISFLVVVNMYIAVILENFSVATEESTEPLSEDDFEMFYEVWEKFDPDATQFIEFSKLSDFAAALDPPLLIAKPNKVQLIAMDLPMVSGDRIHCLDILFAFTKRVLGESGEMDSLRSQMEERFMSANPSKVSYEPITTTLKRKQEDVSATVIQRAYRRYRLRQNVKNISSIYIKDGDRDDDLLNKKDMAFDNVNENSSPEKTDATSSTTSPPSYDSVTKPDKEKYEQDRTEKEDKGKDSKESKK

IC50	Structure (SMILES)
161 nM	CN(c1ccccc1)c1nc(N)nc(-c2noc(N3CC[C@H](Oc4ccccc4)C3)n2)n1 [Example 433, 2-N-methyl-6-{5-[(3S)-3-phenoxypyrrolidin-1-yl]-1,2,4-oxadiazol-3-yl}-2-N-phenyl-1,3,5-triazine-2,4-diamine]
140 nM	CN(c1ccccc1)c1nc(N)nc(-c2noc(N3CC[C@@H](Oc4ccccc4)C3)n2)n1 [Example 434, 2-N-methyl-6-{5-[(3R)-3-phenoxypyrrolidin-1-yl]-1,2,4-oxadiazol-3-yl}-2-N-phenyl-1,3,5-triazine-2,4-diamine]
171 nM	COCCN(c1ccccc1)c1nc(N)nc(-c2noc(N3CC(Oc4ccccc4)C3)n2)n1 [Example 436, 2-N-(2-Methoxyethyl)-6-[5-(3-phenoxyazetidin-1-yl)-1,2,4-oxadiazol-3-yl]-2-N-phenyl-1,3,5-triazine-2,4-diamine]
167 nM	COCCN(c1ccccc1)c1nc(N)nc(-c2noc(-c3c(F)cccc3OC)n2)n1 [Example 437, 6-[5-(2-fluoro-6-methoxyphenyl)-1,2,4-oxadiazol-3-yl]-2-N-(2-methoxyethyl)-2-N-phenyl-1,3,5-triazine-2,4-diamine]
2090 nM	CN(c1ccccc1)c1nc(N)nc(-c2noc([C@@H]3CCCN3)n2)n1 [Example 438, 2-N-methyl-2-N-phenyl-6-{5-[(2S)-pyrrolidin-2-yl]-1,2,4-oxadiazol-3-yl}-1,3,5-triazine-2,4-diamine hydrochloride]
4060 nM	CN(c1ccccc1)c1nc(N)nc(-c2noc([C@H]3CCCN3)n2)n1 [Example 439, 2-N-methyl-2-N-phenyl-6-{5-[(2R)-pyrrolidin-2-yl]-1,2,4-oxadiazol-3-yl}-1,3,5-triazine-2,4-diamine hydrochloride]
1300 nM	CN(c1ccccc1)c1nc(N)nc(-c2noc([C@@H]3CCCN3C(=O)OC(C)(C)C)n2)n1 [Example 440, tert-butyl (2S)-2-(3-{4-amino-6-[methyl(phenyl)amino]-1,3,5-triazin-2-yl}-1,2,4-oxadiazol-5-yl)pyrrolidine-1-carboxylate]
1450 nM	CN(c1ccccc1)c1nc(N)nc(-c2noc([C@@H]3CCCN3CCC(F)(F)F)n2)n1 [Example 441, 2-N-Methyl-2-N-phenyl-6-{5-[(2S)-1-(3,3,3-trifluoropropyl)pyrrolidin-2-yl]-1,2,4-oxadiazol-3-yl}-1,3,5-triazine-2,4-diamine]
7180 nM	CN(c1ccccc1)c1nc(N)nc(-c2noc([C@H]3CCCN3CCC(F)(F)F)n2)n1 [Example 442, 2-N-methyl-2-N-phenyl-6-{5-[(2R)-1-(3,3,3-trifluoropropyl)pyrrolidin-2-yl]-1,2,4-oxadiazol-3-yl}-1,3,5-triazine-2,4-diamine]
7290 nM	CN(c1ccccc1)c1nc(N)nc(-c2noc(N3CC[C@@H](OCC(F)(F)F)C3)n2)n1 [Example 443, 2-N-methyl-2-N-phenyl-6-{5-[(3R)-3-(2,2,2-trifluoroethoxy)pyrrolidin-1-yl]-1,2,4-oxadiazol-3-yl}-1,3,5-triazine-2,4-diamine]
8000 nM	COC[C@H]1CCCN1c1nc(-c2nc(N)nc(N(C)c3ccccc3)n2)no1 [Example 444, 6-{5-[(2R)-2-(methoxymethyl)pyrrolidin-1-yl]-1,2,4-oxadiazol-3-yl}-2-N-methyl-2-N-phenyl-1,3,5-triazine-2,4-diamine]
3300 nM	CN(c1ccccc1)c1nc(N)nc(-c2noc(N3CC[C@H](OCC(F)(F)F)C3)n2)n1 [Example 445, 2-N-methyl-2-N-phenyl-6-{5-[(3S)-3-(2,2,2-trifluoroethoxy)pyrrolidin-1-yl]-1,2,4-oxadiazol-3-yl}-1,3,5-triazine-2,4-diamine]
3620 nM	COC[C@@H]1CCCN1c1nc(-c2nc(N)nc(N(C)c3ccccc3)n2)no1 [Example 446, 6-{5-[(2S)-2-(methoxymethyl)pyrrolidin-1-yl]-1,2,4-oxadiazol-3-yl}-2-N-methyl-2-N-phenyl-1,3,5-triazine-2,4-diamine]
1090 nM	CC(C)CS(=O)(=O)N1CCC[C@@H]1c1nc(-c2nc(N)nc(N(C)c3ccccc3)n2)no1 [Example 447, 2-N-methyl-6-{5-[(2R)-1-[(2-methylpropane)sulfonyl]pyrrolidin-2-yl]-1,2,4-oxadiazol-3-yl}-2-N-phenyl-1,3,5-triazine-2,4-diamine]
287 nM	CN(c1ccccc1)c1nc(N)nc(-c2noc([C@H]3CCCN3S(=O)(=O)CC(F)(F)F)n2)n1 [Example 448, 2-N-methyl-2-N-phenyl-6-{5-[(2R)-1-[(2,2,2-trifluoroethane)sulfonyl]pyrrolidin-2-yl]-1,2,4-oxadiazol-3-yl}-1,3,5-triazine-2,4-diamine]
2570 nM	CN(c1ccccc1)c1nc(N)nc(-c2noc([C@H]3CCCN3C(=O)CC3CC3)n2)n1 [Example 449, 1-[(2R)-2-(3-{4-amino-6-[methyl(phenyl)amino]-1,3,5-triazin-2-yl}-1,2,4-oxadiazol-5-yl)pyrrolidin-1-yl]-2-cyclopropylethan-1-one]
9530 nM	CN(c1ccccc1)c1nc(N)nc(-c2noc([C@@H]3CCCN3C(=O)CC3CC3)n2)n1 [Example 450, 1-[(2S)-2-(3-{4-amino-6-[methyl(phenyl)amino]-1,3,5-triazin-2-yl}-1,2,4-oxadiazol-5-yl)pyrrolidin-1-yl]-2-cyclopropylethan-1-one]
7950 nM	CN(c1ccccc1)c1nc(N)nc(-c2noc([C@@H]3CCCN3C(=O)CC(F)(F)F)n2)n1 [Example 451, 1-[(2S)-2-(3-{4-amino-6-[methyl(phenyl)amino]-1,3,5-triazin-2-yl}-1,2,4-oxadiazol-5-yl)pyrrolidin-1-yl]-3,3,3-trifluoropropan-1-one]
61 nM	CN(c1ccccc1)c1nc(N)nc(-c2noc(-c3ccc(SCC4CC4)nc3)n2)n1 [Example 452, 6-(5-{6-[(cyclopropylmethyl)sulfanyl]pyridin-3-yl}-1,2,4-oxadiazol-3-yl)-2-N-methyl-2-N-phenyl-1,3,5-triazine-2,4-diamine]
121 nM	CN(c1ccccc1)c1nc(N)nc(-c2noc(-c3ccc(SCCC(F)(F)F)nc3)n2)n1 [Example 453, 2-N-methyl-2-N-phenyl-6-{5-{6-[(3,3,3-trifluoropropyl)sulfanyl]pyridin-3-yl}-1,2,4-oxadiazol-3-yl)-1,3,5-triazine-2,4-diamine]
290 nM	CN(c1ccccc1)c1nc(N)nc(-c2noc(-c3ccc(S(=O)(=O)CCC(F)(F)F)nc3)n2)n1 [Example 454, 2-N-methyl-2-N-phenyl-6-(5-{6-[(3,3,3-trifluoropropane)sulfonyl]pyridin-3-yl}-1,2,4-oxadiazol-3-yl)-1,3,5-triazine-2,4-diamine]
57 nM	CN(c1ccccc1)c1nc(N)nc(-c2noc(-c3ccc([S+]([O-])CCC(F)(F)F)nc3)n2)n1 (centres unmarked) [Example 455, 2-N-methyl-2-N-phenyl-6-(5-{6-[(3,3,3-trifluoropropane)sulfinyl]pyridin-3-yl}-1,2,4-oxadiazol-3-yl)-1,3,5-triazine-2,4-diamine]
310 nM	CN(c1ccccc1)c1nc(N)nc(-c2noc(-c3ccc([S+]([O-])CC4CC4)nc3)n2)n1 (centres unmarked) [Example 456, 6-{5-[6-(cyclopropylmethane)sulfinylpyridin-3-yl]-1,2,4-oxadiazol-3-yl}-2-N-methyl-2-N-phenyl-1,3,5-triazine-2,4-diamine]
